Measured values: patent publication US20250353820A1, “ANTIVIRAL PYRAZOLOPYRIDINONE COMPOUNDS” (Novartis AG, priority 2019, published 2025)
Read-outs that look alike come from different tables or passages of the source.

Tests used:
[1] = system: Luciferase-encoding HCMV (AD169 strain); assay: microbe, parasite or virus in culture; assay type: cell-based
[2] = target: human HSV DNA polymerase UL30 (Human herpesvirus 1 (strain 17) (HHV-1) (Human herpes simplex virus 1), UniProt P04293); assay: biochemical; details: 20 minutes at room temperature
[3] = target: human CMV DNA polymerase UL54 (Human cytomegalovirus (strain AD169) (HHV-5) (Human herpesvirus 5), UniProt P08546); assay: biochemical
[4] = read-out: CMV-Luc Cellular EC50, NN-NHDF cells, MOI of 1, 72 hrs
[5] = HSV-polymerase Biochemical IC50, 625 pM HSV polymerase
[6] = 625 pM HSV polymerase, read-out: HSV-polymerase Biochemical IC50

SMILES	EC50 [1, 4]	IC50 [2, 6]	also measured
CC1Cc2c(C(=O)NCc3ccc(C#N)cc3)nn(C)c2C(=O)N1CC1(S(C)(=O)=O)CC1 (single isomer, unassigned) [Example 41, (R)- or (S)—N-(4-cyanobenzyl)-1,5-dimethyl-6-((1-(methylsulfonyl)cyclopropyl)methyl)-7-oxo-4,5,6,7-tetrahydro-1H-pyrazolo[3,4-c]pyridine-3-carboxamide]	> 10000 nM	–	–
CC1Cc2c(C(=O)NCc3ccc(C#N)cc3)nn(C)c2C(=O)N1CC1(S(C)(=O)=O)CC1 (single isomer, unassigned) [Example 42, (R)- or (S)—N-(4-cyanobenzyl)-1,5-dimethyl-6-((1-(methylsulfonyl)cyclopropyl)methyl)-7-oxo-4,5,6,7-tetrahydro-1H-pyrazolo[3,4-c]pyridine-3-carboxamide]	1180 nM	–	–
Cn1nc(C(=O)NCc2ccc(C#N)cc2)c2c1C(=O)N(CC1(S(=O)(=O)C(C)(C)COC(F)CO)CC1)CC2 (single isomer, unassigned) [Example 81, (R)- or (S)—N-(4-cyanobenzyl)-6-((1-((1-(1-fluoro-2-hydroxyethoxy)-2-methylpropan-2-yl)sulfonyl)cyclopropyl)methyl)-1-methyl-7-oxo-4,5,6,7-tetrahydro-1H-pyrazolo[3,4-c]pyridine-3-carboxamide]	42 nM	–	–
Cn1nc(C(=O)NCc2ccc(C#N)cc2)c2c1C(=O)N(CC1(S(=O)(=O)C(C)(C)COC(F)CN)CC1)CC2 (single isomer, unassigned) [Example 82, (R)- or (S)-6-((1-((1-(2-amino-1-fluoroethoxy)-2-methylpropan-2-yl)sulfonyl)cyclopropyl)methyl)-N-(4-cyanobenzyl)-1-methyl-7-oxo-4,5,6,7-tetrahydro-1H-pyrazolo[3,4-c]pyridine-3-carboxamide]	29 nM	–	–
Cn1nc(C(=O)NCc2ccc(C#N)cc2)c2c1C(=O)N(CC1(S(=O)(=O)C(C)(C)COC(F)CN)CC1)CC2 (single isomer, unassigned) [Example 83, (R)- or (S)-6-((1-((1-(2-amino-1-fluoroethoxy)-2-methylpropan-2-yl)sulfonyl)cyclopropyl)methyl)-N-(4-cyanobenzyl)-1-methyl-7-oxo-4,5,6,7-tetrahydro-1H-pyrazolo[3,4-c]pyridine-3-carboxamide]	133 nM	–	–
CC(O)COCC(C)(C)S(=O)(=O)C1(CN2CCc3c(C(=O)NCc4ccc(C#N)cc4)nn(C)c3C2=O)CC1 (single isomer, unassigned) [Example 91, (R)- or (S)—N-(4-Cyanobenzyl)-6-((1-((1-(2-hydroxypropoxy)-2-methylpropan-2-yl)sulfonyl)cyclopropyl)methyl)-1-methyl-7-oxo-4,5,6,7-tetrahydro-1H-pyrazolo[3,4-c]pyridine-3-carboxamide]	76 nM	–	–
CC(N)COCC(C)(C)S(=O)(=O)C1(CN2CCc3c(C(=O)NCc4ccc(Cl)cc4)nn(C)c3C2=O)CC1 (single isomer, unassigned) [Example 97]	–	–	IC50 [2, 5]: 23 nM; IC50 [3]: 1 nM
CC(N)COCC(C)(C)S(=O)(=O)C1(CN2CCc3c(C(=O)NCc4ccc(Cl)cc4)nn(C)c3C2=O)CC1 (single isomer, unassigned) [Example 98]	–	–	IC50 [2, 5]: 26 nM; IC50 ([3]; read-out: CMV-polymerase Biochemical IC50, 100 pM CMV polymerase, 60 minutes at room temperature): 1 nM
CC1=NOC(C(C)(C)S(=O)(=O)C2(CN3CCc4c(C(=O)NCc5ccc(C#N)cc5)nn(C)c4C3=O)CC2)C1 (single isomer, unassigned) [Example 111, (R)- or (S)—N-(4-Cyanobenzyl)-1-methyl-6-((1-((2-(3-methyl-4,5-dihydroisoxazol-5-yl)propan-2-yl)sulfonyl)cyclopropyl)methyl)-7-oxo-4,5,6,7-tetrahydro-1H-pyrazolo[3,4-c]pyridine-3-carboxamide]	159 nM	–	–
CC1=NOC(C(C)(C)S(=O)(=O)C2(CN3CCc4c(C(=O)NCc5ccc(C#N)cc5)nn(C)c4C3=O)CC2)C1 (single isomer, unassigned) [Example 112, (R)- or (S)—N-(4-Cyanobenzyl)-1-methyl-6-((1-((2-(3-methyl-4,5-dihydroisoxazol-5-yl)propan-2-yl)sulfonyl)cyclopropyl)methyl)-7-oxo-4,5,6,7-tetrahydro-1H-pyrazolo[3,4-c]pyridine-3-carboxamide]	64 nM	–	–
CC(O)CC(C)(C)S(=O)(=O)C1(CN2CCc3c(C(=O)NCc4ccc(C#N)cc4)nn(C)c3C2=O)CC1 (single isomer, unassigned) [Example 116, (R)- or (S)—N-(4-Cyanobenzyl)-6-((1-((4-hydroxy-2-methylpentan-2-yl)sulfonyl)cyclopropyl)methyl)-1-methyl-7-oxo-4,5,6,7-tetrahydro-1H-pyrazolo[3,4-c]pyridine-3-carboxamide]	39 nM	–	–
Cn1nc(C(=O)NCc2ccc(C#N)cc2)c2c1C(=O)N(CC1(S(=O)(=O)N3CCC(C)(O)C3)CC1)CC2 (single isomer, unassigned) [Example 131, (R)- or (S)-N-(4-Cyanobenzyl)-6-((1-((3-hydroxy-3-methylpyrrolidin-1-yl)sulfonyl)cyclopropyl)methyl)-1-methyl-7-oxo-4,5,6,7-tetrahydro-1H-pyrazolo[3,4-c]pyridine-3-carboxamide]	223 nM	162 nM	–
COCC(C)(CO)S(=O)(=O)C1(CN2CCc3c(C(=O)NCc4ccc(C#N)cc4)nn(C)c3C2=O)CC1 (single isomer, unassigned) [Example 182, (R)- or (S)—N-(4-Cyanobenzyl)-6-((1-((1-hydroxy-3-methoxy-2-methylpropan-2-yl)sulfonyl)cyclopropyl)methyl)-1-methyl-7-oxo-4,5,6,7-tetrahydro-1H-pyrazolo[3,4-c]pyridine-3-carboxamide]	50 nM	–	–
Cn1nc(C(=O)NCc2ccc(Cl)cc2)c2c1C(=O)N(CC1(S(=O)(=O)C(C)(CN)CO)CC1)CC2 (single isomer, unassigned) [Example 187]	71 nM	86 nM	–
Cn1nc(C(=O)NCc2ccc(Cl)cc2)c2c1C(=O)N(CC1(S(=O)(=O)C(C)(CN)CO)CC1)CC2 (single isomer, unassigned) [Example 188]	160 nM	108 nM	–
Cn1nc(C(=O)NCc2ccc(C#N)cc2)c2c1C(=O)N(CC1(S(=O)(=O)C(C)(C)C(O)C(C)(C)N)CC1)CC2 (single isomer, unassigned) [Example 211, (R)- or (S)-6-((1-((4-Amino-3-hydroxy-2,4-dimethylpentan-2-yl)sulfonyl)cyclopropyl)methyl)-N-(4-cyanobenzyl)-1-methyl-7-oxo-4,5,6,7-tetrahydro-1H-pyrazolo[3,4-c]pyridine-3-carboxamide]	28 nM	–	–
Cn1nc(C(=O)NCc2ccc(C#N)cc2)c2c1C(=O)N(CC1(S(=O)(=O)C(C)(C)C(O)C(C)(C)N)CC1)CC2 (single isomer, unassigned) [Example 212, (R)- or (S)-6-((1-((4-Amino-3-hydroxy-2,4-dimethylpentan-2-yl)sulfonyl)cyclopropyl)methyl)-N-(4-cyanobenzyl)-1-methyl-7-oxo-4,5,6,7-tetrahydro-1H-pyrazolo[3,4-c]pyridine-3-carboxamide]	7 nM	–	–
CC(O)Cn1nc(C(=O)NCc2ccc(C#N)cc2)c2c1C(=O)N(CC1(S(=O)(=O)C3CC3)CC1)CC2 (single isomer, unassigned) [Example 226, (R)- or (S)—N-(4-Cyanobenzyl)-6-((1-(cyclopropylsulfonyl)cyclopropyl)methyl)-1-(2-hydroxypropyl)-7-oxo-4,5,6,7-tetrahydro-1H-pyrazolo[3,4-c]pyridine-3-carboxamide]	44 nM	–	–
Cn1nc(C(=O)NCc2ccc(Cl)cc2)c2c1C(=O)N(CC1(S(=O)(=O)C(C)(CN)CO)CC1)CC2 (centres unmarked) [Example 186]	–	37 nM	EC50 ([1]; NN-NHDF cells, MOI of 1, 72 hrs, read-out: CMV-Luc Cellular EC50): 90 nM
Cn1nc(C(=O)NCc2ccc(C#N)cc2)c2c1C(=O)N(CC1(S(=O)(=O)C(C)(C)[C@H](O)CO)CC1)CC2 [Example 193, (R)—N-(4-cyanobenzyl)-6-((1-((3,4-dihydroxy-2-methylbutan-2-yl)sulfonyl)cyclopropyl)methyl)-1-methyl-7-oxo-4,5,6,7-tetrahydro-1H-pyrazolo[3,4-c]pyridine-3-carboxamide]	–	11 nM	EC50 ([1]; Human betaherpesvirus 5, AD169, 72 h, read-out: CMV-Luc Cellular EC50, NN-NHDF cells, MOI of 1, 72 hrs): 22 nM
CC(C)(O)Cn1nc(C(=O)NCc2ccc(C#N)cc2)c2c1C(=O)N(CC1(S(=O)(=O)C3(CO)CC3)CC1)CC2 [Example 234]	–	19 nM	–
CC(C)(O)Cn1nc(C(=O)NCc2ccc(C#N)cc2)c2c1C(=O)N(CC1(S(=O)(=O)C(C)(C)CO)CC1)CC2 [Example 235]	–	16 nM	–
N#Cc1ccc(CNC(=O)c2nn(CCCO)c3c2CCN(CC2(S(=O)(=O)C4CC4)CC2)C3=O)cc1 [Example 236, N-(4-Cyanobenzyl)-6-((1-(cyclopropylsulfonyl)cyclopropyl)methyl)-1-(3-hydroxypropyl)-7-oxo-4,5,6,7-tetrahydro-1H-pyrazolo[3,4-c]pyridine-3-carboxamide]	–	91 nM	–
CC1(S(=O)(=O)C2(CN3CCc4c(C(=O)NCc5ccc(C#N)cc5)nn(CCCO)c4C3=O)CC2)CC1 [Example 237, N-(4-Cyanobenzyl)-1-(3-hydroxypropyl)-6-((1-((1-methylcyclopropyl)sulfonyl)cyclopropyl)methyl)-7-oxo-4,5,6,7-tetrahydro-1H-pyrazolo[3,4-c]pyridine-3-carboxamide]	–	41 nM	–
CC(C)(CO)S(=O)(=O)C1(CN2CCc3c(C(=O)NCc4ccc(C#N)cc4)nn(CCOCCBr)c3C2=O)CC1 [Example 238, 1-(2-(2-Bromoethoxy)ethyl)-N-(4-cyanobenzyl)-6-((1-((1-hydroxy-2-methylpropan-2-yl)sulfonyl)cyclopropyl)methyl)-7-oxo-4,5,6,7-tetrahydro-1H-pyrazolo[3,4-c]pyridine-3-carboxamide]	–	16 nM	–
